Read-outs that look alike come from different tables or passages of the source. Blank lines part the entries; values can stand above or below the molecule they belong to.
Experiment: Multi-component pharmacokinetic study of GQD, GQD-GC and single herb extracts in rats (plasma, LC/MS/MS)
Format: in vivo, Sprague-Dawley rats
Settings: for AUC(0-t) / Cmax / half-life / Tmax: male, Sprague-Dawley, rat
Experimental: Male Sprague-Dawley rats (220–250 g) were used for PK study, and the details were described in Supplemental Data. All procedures were in accordance with the National Institutes of Health Guide for the Care and Use of Laboratory Animals.
For PK study of GQD and its component herbs, rats were randomly divided into six groups (n = 10 for each group) before oral administration.
All blood samples were immediately centrifuged at 6,000 rpm (4°C) for 20 min to obtain plasma. The plasma samples were stored at −80°C.
A Finnigan TSQ Quantum triple quadrupole mass spectrometer was connected to a Surveyor HPLC via ESI interface (ThermoFisher). High purity nitrogen was used as the sheath and auxiliary gas; Ultra-high purity argon was used as the collision gas (1.5 mTorr). Q1 and Q3 quadrupoles were set at unit resolution. […] The column temperature was 40°C. The mobile phase consisted of acetonitrile containing 2% (v/v) methanol (A) and water containing 0.1% (v/v) formic acid (B). […] An aliquot of 5 μL was injected for analysis. UV spectra were obtained by scanning from 200 to 400 nm. The mass spectrometer was operated in the (+)-ESI mode. The optimized parameters were as follows: sheath gas (N2), 50 arb; auxiliary gas (N2), 5 arb; spray voltage, 4.0 kV; capillary temperature, 330°C; collision energy, see Table S1. Analytes were detected in the selected reaction monitoring (SRM) mode. Data were processed by Xcalibur 2.0.7 software (ThermoFisher).
LC/MS/MS calibration and quantitation data were processed with Xcalibur 2.0.7 software (ThermoFisher). The maximal plasma concentrations (Cmax) and their time of occurrence (Tmax) were obtained directly from the measured data. Other pharmacokinetic parameters were calculated by non-compartment or compartment models using WinNonlin® software (v6.1, Pharsight). Unless otherwise stated, results were expressed as the mean ± SD. Statistical significance in differences of the means was determined by Student's t–test, with a significance level of P < 0.05.
Herbal materials and extracts.
The four component herbs, Puerariae Lobatae Radix (Ge-Gen, GG), Scutellariae Radix (Huang-Qin, HQ), Coptidis Rhizoma (Huang-Lian, HL), and Glycyrrhizae Radix et Rhizoma Praeparata cum Melle (Gan-Cao, GC) were purchased from Tianheng Pharmacy. GQD was prepared by decocting the four component herbs […]
pre-extraction of Ge-Gen using 200 mL of water for 0.5 h. The decoctions were combined, filtered, and concentrated in vacuum at 50 °C. GQD-GC was prepared using the same procedure, except that Gan-Cao was removed from the formula. Final concentration of the GQD-GC extract was equivalent to 1.0 g of the crude drugs per mL. For single herb extracts, the herbs were decocted in 8-fold volume of water for […]
Final concentrations of the extracts were 1.0 g/mL for Ge-Gen, and 0.5 g/mL for Huang-Qin, Huang-Lian and […]
For pharmacokinetic study, Male Sprague-Dawley rats (220-250 g) were obtained from the Laboratory Animal Center of Peking University Health Science Center. The […]
The rats had free access to tap water and soy-free custom diet (Ke’ao Xieli Co.). All procedures were in accordance with the National Institutes of Health Guide for the Care and Use of Laboratory Animals […]
Experimental details for the PK study
1. Preparation of internal standard solution, calibration standard solutions, and quality control solutions […]
internal standard solution. Reference standard compounds were dissolved in the internal standard solution to prepare individual stock solutions (1.0 mg/mL). These […]
each compound. The standard solution was then serially diluted to obtain calibration […]
Quality control stock solutions were prepared at three concentration levels as high QC (HQC), middle QC (MQC), and low QC (LQC), based on linear ranges of the analytes.
2.1. Sample preparation for pharmacokinetic study
The calibration standard and quality control solutions for pharmacokinetic study were […]

[1] = plasma, po, 16.5 g/kg, GQD-GC group (GQD without Gan-Cao): rats, oral 16.5 g/kg, plasma, read-out: AUClast
[2] = plasma, po, 18.9 g/kg, GQD group: rats, oral GQD extract 18.9 g/kg, plasma, read-out: AUClast
[3] = GQD group: rats, oral GQD extract 18.9 g/kg, plasma, read-out: Cmax
[4] = GQD group: rats, oral GQD extract 18.9 g/kg, plasma, read-out: T1/2 (converted)
[5] = GQD group: rats, oral GQD extract 18.9 g/kg, plasma, read-out: Tmax
[6] = GQD-GC group (GQD without Gan-Cao): rats, oral 16.5 g/kg, plasma, read-out: Cmax
[7] = GQD-GC group (GQD without Gan-Cao): rats, oral 16.5 g/kg, plasma, read-out: T1/2 (converted)
[8] = GQD-GC group (GQD without Gan-Cao): rats, oral 16.5 g/kg, plasma, read-out: Tmax

AUC(0-t) (plasma, po, 9.45 g/kg, GG (Ge-Gen) group: rats, oral extract 9.45 g/kg, plasma, read-out: AUClast): 139 ± 52.4 ng·h/mL | AUC(0-t) [1]: 187 ± 129 ng·h/mL | AUC(0-t) [2]: 500 ± 233 ng·h/mL | AUC(0-t) (plasma, po, 18.9 g/kg, GQD group: rats, oral GQD 18.9 g/kg (1.5-fold of clinical dosage), plasma, read-out: AUClast): > 300 ng·h/mL | Cmax (GG (Ge-Gen) group: rats, oral extract 9.45 g/kg, plasma, read-out: Cmax): 41.2 ± 11.4 ng/mL | half-life (GG (Ge-Gen) group: rats, oral extract 9.45 g/kg, plasma, read-out: T1/2 (converted)): 72.6 ± 14.4 min | Tmax (GG (Ge-Gen) group: rats, oral extract 9.45 g/kg, plasma, read-out: Tmax): 1.12 ± 0.29 h | Cmax [3]: 34.8 ± 34.2 ng/mL | half-life [4]: 344 ± 132 min | Tmax [5]: 0.86 ± 0.15 h | Cmax [6]: 24.1 ± 8.38 ng/mL | half-life [7]: 146 ± 87 min | Tmax [8]: 0.74 ± 0.29 h | bioavailability in the GQD group compared with the Ge-Gen group (rats, oral): higher
Structure (SMILES): COc1ccc(-c2coc3cc(O[C@@H]4O[C@H](CO)[C@@H](O)[C@H](O)[C@H]4O)ccc3c2=O)cc1 [Compound 39, ononin]

Cmax (in vivo, po, 2.36 g/kg): 22.63 ± 0.22 ng/mL | Tmax (in vivo, po, 2.36 g/kg): 1 ± 2.34 h | half-life (in vivo, po, 2.36 g/kg): 590 ± 211 min | AUC(0-t) (in vivo, po, 2.36 g/kg, AUClast): 75.4 ± 81.1 ng·h/mL | Cmax (in vivo, po, 18.9 g/kg): 27.4 ± 9.97 ng/mL | Tmax (in vivo, po, 18.9 g/kg): 1 ± 0.93 h | half-life (in vivo, po, 18.9 g/kg): 674 ± 461 min | AUC(0-t) (in vivo, po, 18.9 g/kg, AUClast): 153 ± 9.34 ng·h/mL
Structure (SMILES): O=C1C[C@@H](c2ccc(O)cc2)Oc2cc(O)ccc21 [Compound 29, liquiritigenin]

AUC(0-t) (plasma, po, 3.54 g/kg, HQ (Huang-Qin) group: rats, oral extract 3.54 g/kg, plasma, read-out: AUClast): 11000 ± 2530 ng·h/mL | AUC(0-t) (plasma, po, 3.54 g/kg, Huang-Qin group: rats, oral 3.54 g/kg, plasma, read-out: AUClast): 11000 ± 2530 ng·h/mL | AUC(0-t) [1]: 6030 ± 272 ng·h/mL | AUC(0-t) [2]: 5270 ± 987 ng·h/mL | Cmax [3]: 379 ± 98.5 ng/mL | half-life [4]: 293 ± 172 min | Tmax [5]: 7.05 ± 1.23 h | Cmax [6]: 359 ± 34.3 ng/mL | half-life [7]: 257 ± 97.8 min | Tmax [8]: 6.17 ± 8.34 h | Cmax (HQ (Huang-Qin) group: rats, oral extract 3.54 g/kg, plasma, read-out: Cmax): 547 ± 73.8 ng/mL | half-life (HQ (Huang-Qin) group: rats, oral extract 3.54 g/kg, plasma, read-out: T1/2 (converted)): 306 ± 19.8 min | Tmax (HQ (Huang-Qin) group: rats, oral extract 3.54 g/kg, plasma, read-out: Tmax): 7.36 ± 0.08 h | decrease of Cmax in the GQD group compared with the Huang-Qin group (rats, oral, GQD vs Huang-Qin): at least 30%
Structure (SMILES): O=C(O)[C@H]1O[C@@H](Oc2cc(O)c3c(=O)cc(-c4ccccc4)oc3c2O)[C@H](O)[C@@H](O)[C@@H]1O [Compound 14, norwogonin 7-O-glucuronide]

Structure (SMILES): O=c1c(-c2ccc(O)cc2)coc2cc(O[C@@H]3O[C@H](CO)[C@@H](O)[C@H](O)[C@H]3O)ccc12 [Compound 1, Daidzin]
AUC(0-t) (in vivo, po, 9.45 g/kg, GG (Ge-Gen) group: rats, oral extract 9.45 g/kg, plasma, read-out: AUClast): 290 ± 42.2 ng·h/mL | AUC(0-t) (in vivo, po, 9.45 g/kg, Ge-Gen group: rats, oral 9.45 g/kg, plasma, read-out: AUClast): 290 ± 42.2 ng·h/mL | AUC(0-t) (in vivo, po, 16.5 g/kg, GQD-GC group (GQD without Gan-Cao): rats, oral 16.5 g/kg, plasma, read-out: AUClast): 282 ± 61.6 ng·h/mL | AUC(0-t) (in vivo, po, 18.9 g/kg, GQD group: rats, oral GQD extract 18.9 g/kg, plasma, read-out: AUClast): 346 ± 30.3 ng·h/mL | AUC(0-t) (in vivo, po, 18.9 g/kg, GQD group: rats, oral GQD 18.9 g/kg (1.5-fold of clinical dosage), plasma, read-out: AUClast): > 300 ng·h/mL | Cmax (in vivo, GG (Ge-Gen) group: rats, oral extract 9.45 g/kg, plasma, read-out: Cmax): 58 ± 0.77 ng/mL | half-life (in vivo, GG (Ge-Gen) group: rats, oral extract 9.45 g/kg, plasma, read-out: T1/2 (converted)): 44.4 ± 19.8 min | Tmax (in vivo, GG (Ge-Gen) group: rats, oral extract 9.45 g/kg, plasma, read-out: Tmax): 0.38 ± 0.04 h | Cmax (in vivo, GQD group: rats, oral GQD extract 18.9 g/kg, plasma, read-out: Cmax): 27.4 ± 3.34 ng/mL | half-life (in vivo, GQD group: rats, oral GQD extract 18.9 g/kg, plasma, read-out: T1/2 (converted)): 238 ± 61.2 min | Tmax (in vivo, GQD group: rats, oral GQD extract 18.9 g/kg, plasma, read-out: Tmax): 0.88 ± 0.11 h | Cmax (in vivo, GQD-GC group (GQD without Gan-Cao): rats, oral 16.5 g/kg, plasma, read-out: Cmax): 52.4 ± 2.21 ng/mL | half-life (in vivo, GQD-GC group (GQD without Gan-Cao): rats, oral 16.5 g/kg, plasma, read-out: T1/2 (converted)): 97.8 ± 8.4 min | Tmax (in vivo, GQD-GC group (GQD without Gan-Cao): rats, oral 16.5 g/kg, plasma, read-out: Tmax): 0.58 ± 0.24 h | bioavailability in the GQD group compared with the Ge-Gen group (rats, oral): higher

From article PMC6018403 (Frontiers in Pharmacology, 2018)
